Data from patent publication US12366579B2, “Sulfur-heterocycle exchange chemistry and uses thereof” (University of Virginia Patent Foundation, priority 2019, dated 2025).

What was measured:
EDC3 = EDC3 (Homo sapiens, UniProt Q96F86); experiment: Chemical proteomics analysis of EDC3 using EKT-231 and HHS-465; type: binding; settings: FIG. 46B
Excerpt: FIGS. 46A and 46B: Inhibition of mRNA decapping protein 3 (EDC3) Y475 by EKT-231. FIG. 46A is a schematic drawing of the chemical structure of EKT-231. FIG. 46B is a series of graphs showing the chemical proteomics analysis of EDC3 using EKT-231 and HHS-465.
In addition, SuTEx fragment EKT231 (see FIG. 46A) modifies EDC3 at tyrosine 475.

YWHAE (Y49) = target: T1, YWHAE (Y49) (Homo sapiens, UniProt P62258); experiment: Competitive chemical proteomics of SuTEx fragments vs HHS-482, YWHAE site; type: binding; settings: fragment 50 μM, 30 min, 37° C.
T1 construct: endogenous in cells; host or cells: DM93 melanoma cells, soluble proteome (lysate)
Description: (§1) Heavy and light proteomes (432 μl of each) were diluted to 2.3 mg ml^−1 in PBS and sample aliquots (432 μl) were treated with SuTEx fragment at the indicated concentrations (5 μl, 100× stock in DMSO), mixed gently and incubated for 30 min at 37° C. Samples were then treated with HHS-482 (5 μL, 5 mM stock in DMSO) for 30 min at 37° C. Probe-modified proteomes were conjugated to desthiobiotin-PEG3-azide followed by enrichment of probe-modified peptides for nano-electrospray ionization-LC-MS/MS analyses as previously described^57.
The chemical proteomic method for functional tyrosine profiling^72 was tailored to investigate AG/LG effects on SuTEx fragment reactivity in complex proteomes. In brief, isotopically light and heavy soluble proteomes from DM93 melanoma cells cultured by stable isotopic labeling by amino acids in cell culture (SILAC^80) media were used for quantitative liquid chromatography-mass spectrometry (LC-MS) studies. […] Proteomes were digested with trypsin protease, HHS-482-modified peptides enriched by avidin chromatography and analyzed by high-resolution LC-MS/MS and bioinformatics as described hereinabove.
To evaluate substituent effects on proteome activity, reactivity profiles of each respective SuTEx fragment were compared across >1500 total distinct HHS-482-modified tyrosine sites from >650 detected proteins. […]

human DPP3 (hDPP3) = target: T2, human DPP3 (hDPP3) (Homo sapiens, UniProt Q9NY33); experiment: Gel-based competitive chemical proteomic screen with HHS-482, recombinant hDPP3-HEK293T soluble proteomes; type: binding; settings: 50 μM fragment, 37° C., 30 min
T2 construct: FLAG (C); host or cells: HEK293T, transient transfection; soluble proteome used unpurified
T2 sequence (Q9NY33 1-737): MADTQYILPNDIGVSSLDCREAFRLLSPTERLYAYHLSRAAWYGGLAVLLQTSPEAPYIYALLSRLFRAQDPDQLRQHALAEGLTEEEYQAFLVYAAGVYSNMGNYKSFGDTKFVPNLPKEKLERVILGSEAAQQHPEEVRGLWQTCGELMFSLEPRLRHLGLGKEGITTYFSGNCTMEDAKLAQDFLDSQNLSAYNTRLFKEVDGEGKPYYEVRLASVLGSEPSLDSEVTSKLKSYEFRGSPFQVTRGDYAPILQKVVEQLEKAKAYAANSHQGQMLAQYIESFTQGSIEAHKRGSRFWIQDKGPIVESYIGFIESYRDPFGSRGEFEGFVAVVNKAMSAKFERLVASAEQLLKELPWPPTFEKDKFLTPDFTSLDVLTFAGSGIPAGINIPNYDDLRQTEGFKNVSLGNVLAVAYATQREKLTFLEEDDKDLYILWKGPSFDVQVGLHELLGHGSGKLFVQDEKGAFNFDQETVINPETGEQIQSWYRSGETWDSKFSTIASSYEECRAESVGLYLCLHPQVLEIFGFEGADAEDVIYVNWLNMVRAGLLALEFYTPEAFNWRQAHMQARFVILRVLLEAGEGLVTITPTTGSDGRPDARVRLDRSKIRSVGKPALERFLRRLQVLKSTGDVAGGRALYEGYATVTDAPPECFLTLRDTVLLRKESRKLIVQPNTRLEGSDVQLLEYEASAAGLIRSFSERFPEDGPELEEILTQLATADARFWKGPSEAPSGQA
Description: Gel-Based Chemical Proteomic Assay
Cell pellets were lysed in PBS and fractionated (100,000×g, 45 min, 4° C.) to generate soluble and membrane fractions. Protein concentrations were determined using Bio-Rad DC protein assay (Bio-Rad Laboratories, Inc., Hercules, California, United States of America), and adjusted to 1 mgml^−1 in PBS. Proteome samples (49 μl aliquots) were treated with DMSO vehicle or indicated concentration of SuTEx fragment (1 μL, 50× stock in DMSO) for 30 min at 37° C. Samples were then treated with HHS-482 probe (1 μL, 2.5 mM stock in DMSO) for 30 min at 37° C. Probe labeled samples were conjugated to rhodamine-azide (1 μL, 1.25 mM stock; final concentration of 25 μM) by copper-catalyzed azide-alkyne cycloadditions (CuAAC) for 1 h at room temperature followed by SDS-PAGE and in-gel fluorescence scanning as previously described^57.

DM93 soluble proteomes = experiment: Proteome-wide competitive chemical proteomics of SuTEx fragments vs HHS-482; type: binding, human; settings: fragment 50 μM, 30 min, 37° C.
Description: as §1
The chemical proteomic method for functional tyrosine profiling^72 was tailored to investigate AG/LG effects on SuTEx fragment reactivity in complex proteomes. In brief, isotopically light and heavy soluble proteomes from DM93 melanoma cells cultured by stable isotopic labeling by amino acids in cell culture (SILAC^80) media were used for quantitative liquid chromatography-mass spectrometry (LC-MS) studies. Light and heavy DM93 proteomes were treated with dimethyl sulfoxide (DMSO) vehicle or SuTEx fragment (50 μM, 30 min, 37° C.), respectively, followed by labeling with the tyrosine-reactive probe HHS-482 described hereinabove (50 μM, 30 min, 37° C.) and copper-catalyzed azide-alkyne cycloaddition (CuAAC) conjugation of a desthiobiotin-azide enrichment tag. Proteomes were digested with trypsin protease, HHS-482-modified peptides enriched by avidin chromatography and analyzed by high-resolution LC-MS/MS and bioinformatics as described hereinabove.
To evaluate substituent effects on proteome activity, reactivity profiles of each respective SuTEx fragment were compared across >1500 total distinct HHS-482-modified tyrosine sites from >650 detected proteins. Fragments were screened across independent biological replicates (n=2-3) and high-quality tyrosine site annotations were identified by detection in at least a single biological replicate from each fragment dataset, probe-specific enrichment (HHS-482 probe/DMSO SILAC ratio (SR)>5), and quality control confidence criteria of ≥300 Byonic score^31, […] protein false discovery rate (FDR), and ≤5 ppm mass accuracy in order to minimize the potential for false positives^72. SILAC ratios (SR) from competitive studies (Light-DMSO/Heavy-fragment) were used to identify fragment-competed tyrosine residues as sites showing >75% reduction in enrichment by HHS-482 compared with DMSO vehicle control (i.e. liganded tyrosines, SR>4). In total, 305 liganded tyrosines on 213 distinct proteins were identified, corresponding to ˜30% and ˜44% of total quantified tyrosines and proteins, respectively. […]

purified DPP3 = target: T3, purified DPP3 (Homo sapiens, UniProt Q9NY33); experiment: DPP3 biochemical substrate assay (Arg-Arg β-naphthylamide peptidase assay)
T3 sequence (Q9NY33 1-737): T2 sequence (Q9NY33 1-737)
Description: DPP3 Biochemical Substrate Assay
Substrate assays were performed using purified DPP3 protein diluted to 5 ng/μL in assay buffer. DPP3 samples (10 μl) were diluted to 85 μl with assay buffer and transferred to a black 96-well plate. Samples were treated with a 50× stock of SuTEx-fragment at indication concentration for 30 min at 37° C. A stock solution of DPP3 substrate (Arg-Arg β-naphthylamide trihydrochloride, 0.5 mM: Sigma-Aldrich. St, Louis, Missouri, United States of America) was diluted to 100 μM in assay buffer. Substrate solution (5 μl) was added to each sample. Samples were mixed briefly by shaking and reaction monitored in kinetic mode by measuring fluorescence at 450 nm for 10 min on a BMG Labtech CLARIOstar plate reader (BMG Labtech, Cary, North Carolina, United States of America).

DPP3 Y417 = target: T4, DPP3 Y417 (Homo sapiens, UniProt Q9NY33); experiment: Quantitative LC-MS chemical proteomics of recombinant human DPP3-HEK293T soluble proteome; type: binding; settings: 50 μM fragment, 37° C., 30 min
T4 construct: FLAG (C); host or cells: HEK293T, transient transfection; soluble proteome used unpurified
Description: Preparation of SILAC Proteomes for Liquid Chromatography-Tandem Mass Spectrometry ([…]) Analysis
as §1
Identification of peptides and proteins from tandem mass spectrometry analyses was accomplished using bioinformatics software and quality control criteria as previously described^57.

T1 sequence (P62258 whole entry, the tested form may be a part): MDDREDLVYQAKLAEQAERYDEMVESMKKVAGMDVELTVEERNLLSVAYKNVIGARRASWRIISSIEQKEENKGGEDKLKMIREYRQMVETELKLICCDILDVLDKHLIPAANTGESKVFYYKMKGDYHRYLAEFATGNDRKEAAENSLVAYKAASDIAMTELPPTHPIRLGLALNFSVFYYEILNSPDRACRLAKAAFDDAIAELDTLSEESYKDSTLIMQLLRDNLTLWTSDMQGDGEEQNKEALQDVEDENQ
Chain of EDC3 (Q96F86 whole entry): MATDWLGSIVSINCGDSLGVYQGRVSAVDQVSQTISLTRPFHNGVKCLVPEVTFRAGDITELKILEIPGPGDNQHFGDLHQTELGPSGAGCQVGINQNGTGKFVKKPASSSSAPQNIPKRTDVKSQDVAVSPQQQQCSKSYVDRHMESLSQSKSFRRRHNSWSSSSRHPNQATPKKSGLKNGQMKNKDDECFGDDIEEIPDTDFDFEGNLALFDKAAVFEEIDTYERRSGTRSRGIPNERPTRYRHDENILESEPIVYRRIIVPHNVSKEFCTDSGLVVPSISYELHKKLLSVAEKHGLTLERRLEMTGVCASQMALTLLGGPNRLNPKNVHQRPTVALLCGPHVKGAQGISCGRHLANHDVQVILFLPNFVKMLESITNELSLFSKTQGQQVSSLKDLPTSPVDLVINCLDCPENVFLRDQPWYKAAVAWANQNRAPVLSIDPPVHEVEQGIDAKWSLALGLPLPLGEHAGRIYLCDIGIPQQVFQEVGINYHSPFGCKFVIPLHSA

SMILES	tyrosine residue of EDC3 modified (EDC3)	SILAC ratio (SR) at tyrosine competed site YWHAE Y49 (YWHAE (Y49))	blockade of DPP3 probe (HHS-482) labeling (human DPP3 (hDPP3))	liganded tyrosine frequency (SR>4) (DM93 soluble proteomes)	fold difference in potency against DPP3, JWB142 vs SuFEx-3 (purified DPP3; JWB142 more potent than SuFEx counterpart)	IC50 (purified DPP3; fragment pretreatment 30 min at 37° C., n=3, read-out: IC50, blockade of DPP3 catalytic (peptidase) activity)	SILAC ratio (SR), DPP3 Y417 (DPP3 Y417)	blockade of HHS-482 labeling of DPP3 Y417 (site liganded) (DPP3 Y417)
N#Cc1ccc(S(=O)(=O)n2cc(-c3cccc(Cl)c3)nn2)cc1 [EKT231]	475	–	–	–	–	–	–	–
COc1ccc(-c2ncn(S(=O)(=O)c3ccc(-c4ccccc4)cc3)n2)cc1 [JWB142, 1-([1,1′-Biphenyl]-4-ylsulfonyl)-3-(4-methoxyphenyl)-1H-1,2,4-triazole]	–	> 6	~50%	< 0.1%	> 10 fold	17 µM	2.4	~50%
